Laboratory results: the Kinase Knowledgebase extract (Sharma et al. 2016)

Biological target: PIK3CB;PIK3CG;PIK3CD;PIK3CA (human) (UniProt P48736)
Experiment: Enzyme Assay

SMILES	IC50 [µM]
COC(=O)c1cc(SC)c2nc(-c3ccncc3)nc(N3CCOCC3)c2n1	5.72
Cc1ccc2nc(Cl)nc(N3CCOCC3)c2n1	8.61
Cc1noc(-c2cc(Cl)c3nc(-n4ccnc4)nc(N4CCOCC4)c3n2)n1	3.29
OCc1cc(N2CCOCC2)c2nc(-n3ccnc3)nc(N3CCOCC3)c2n1	2.98
Cc1noc(-c2ccc3nc(-n4ccnc4)nc(N4CCOCC4)c3n2)n1	0.8
CN(C)C(=O)c1ccc2nc(-n3ccnc3)nc(N3CCOCC3)c2n1	2.97
CN(C)CCNC(=O)c1cc(NCCN(C)C)c2nc(-n3ccnc3)nc(N3CCOCC3)c2n1	1.76
CSc1cc(C(=O)N(C)C)nc2c(N3CCOCC3)nc(-c3cccc(CO)c3)nc12	0.14
COC(=O)c1ccc2nc(-n3ccnc3)nc(N3CCOCC3)c2n1	0.73
CSc1cc(-c2nc(C)no2)nc2c(N3CCOCC3)nc(-n3ccnc3)nc12	3.53
COC(=O)c1ccc2nc(-c3ccccc3)nc(N3CCOCC3)c2n1	0.43
COC(=O)c1cc(SC)c2nc(-c3ccsc3)nc(N3CCOCC3)c2n1	1.83
COC(=O)c1cc(SC)c2nc(-c3cnn(C)c3)nc(N3CCOCC3)c2n1	1.21
CN(C)Cc1ccc2nc(-n3ccnc3)nc(N3CCOCC3)c2n1	3.2
COC(=O)c1cc(N2CCN(C)CC2)c2nc(-n3ccnc3)nc(N3CCOCC3)c2n1	1.01
COCc1cc(SC)c2nc(-n3ccnc3)nc(N3CCOCC3)c2n1	2.31
COC(=O)c1cc(SC)c2nc(-c3ccc(OC)cc3)nc(N3CCOCC3)c2n1	11.4
NC(=O)c1ccc2nc(-n3ccnc3)nc(N3CCOCC3)c2n1	1.83
COC(=O)c1cc(SC)c2nc(C)nc(N3CCOCC3)c2n1	6.86

SMILES	IC50 [µM]
COC(=O)c1cc(SC)c2nc(-c3cn[nH]c3)nc(N3CCOCC3)c2n1	1.27
COCCN(C)c1cc(-c2nnc(C)o2)nc2c(N3CCOCC3)nc(-n3ccnc3)nc12	0.42
COCCN(C)c1cc(C(=O)OC)nc2c(N3CCOCC3)nc(-n3ccnc3)nc12	1.42
Cc1ccc2nc(-n3ccnc3)nc(N3CCOCC3)c2n1	0.95
COCc1noc(-c2ccc3nc(-n4ccnc4)nc(N4CCOCC4)c3n2)n1	0.64
CSCc1ccc2nc(-n3ccnc3)nc(N3CCOCC3)c2n1	3.76
Cc1noc(-c2ccc3nc(-n4cccn4)nc(N4CCOCC4)c3n2)n1	0.5
COC(=O)c1cc(Cl)c2nc(-n3cccn3)nc(N3CCOCC3)c2n1	1.65
CSc1cc(C(=O)N(C)C)nc2c(N3CCOCC3)nc(-c3cccc4[nH]ncc34)nc12	0.86
COCc1cc(N(C)C)c2nc(-n3ccnc3)nc(N3CCOCC3)c2n1	1.16
CN(C)CCNCc1ccc2nc(-n3ccnc3)nc(N3CCOCC3)c2n1	1.89
Cc1noc(-c2cc(N(C)C)c3nc(-n4cccn4)nc(N4CCOCC4)c3n2)n1	0.48
COCc1noc(-c2ccc3nc(-n4cccn4)nc(N4CCOCC4)c3n2)n1	0.83
OCc1ccc2nc(-n3ccnc3)nc(N3CCOCC3)c2n1	3.99
COC(=O)c1cc(SC)c2nc(Cl)nc(N3CCOCC3)c2n1	3.53
COC(=O)c1cc(S(C)(=O)=O)c2nc(Cl)nc(N3CCOCC3)c2n1	2.31
COC(=O)c1cc(SC)c2nc(-n3ccnc3)nc(N3CCOCC3)c2n1	0.35
COC(=O)c1cc(N(C)C)c2nc(-n3ccnc3)nc(N3CCOCC3)c2n1	0.42
COC(=O)c1cc(SC)c2nc(-c3cccc4[nH]ccc34)nc(N3CCOCC3)c2n1	1.27

SMILES	IC50 [µM]
COCc1cc(CN2CCOCC2)c2nc(-n3ccnc3)nc(N3CCOCC3)c2n1	8.45
COCCNc1cc(C(=O)OC)nc2c(N3CCOCC3)nc(-n3ccnc3)nc12	1.29
COC(=O)c1cc(S(C)(=O)=O)c2nc(-n3ccnc3)nc(N3CCOCC3)c2n1	0.57
Cc1nnc(-c2cc(N(C)C)c3nc(-n4ccnc4)nc(N4CCOCC4)c3n2)o1	0.23
CSc1cc(-c2nnc(C)o2)nc2c(N3CCOCC3)nc(-n3ccnc3)nc12	0.32
COC(=O)c1cc(-n2cccc2)c2nc(-n3cccc3)nc(N3CCOCC3)c2n1	8.06
Cc1noc(-c2cc(N(C)C)c3nc(-n4ccnc4)nc(N4CCOCC4)c3n2)n1	0.59
COC(=O)c1cc(SC)c2nc(-c3ccccc3)nc(N3CCOCC3)c2n1	2.84
COC(=O)c1cc(Cl)c2nc(-n3ccnc3)nc(N3CCOCC3)c2n1	0.81
c1cnc2c(N3CCOCC3)nc(-n3ccnc3)nc2c1	5.28
CSc1cc(CO)nc2c(N3CCOCC3)nc(-c3ccsc3)nc12	3.88
COC(=O)c1cc(N2CCOCC2)c2nc(-n3ccnc3)nc(N3CCOCC3)c2n1	0.67
COCc1ccc2nc(-n3ccnc3)nc(N3CCOCC3)c2n1	0.83
Cc1ccc2nc(-c3ccccc3)nc(N3CCOCC3)c2n1	1.84
COCCN(C)c1cc(-c2nc(C)no2)nc2c(N3CCOCC3)nc(-n3cccn3)nc12	2.51
CSc1cc(-c2nc(C)no2)nc2c(N3CCOCC3)nc(-n3cccn3)nc12	0.22
COC(=O)c1cc(Cl)c2nc(Cl)nc(N3CCOCC3)c2n1	12.4
CNC(=O)c1ccc2nc(-n3ccnc3)nc(N3CCOCC3)c2n1	1.1
